≈ marks a conversion by molar mass, not a printed value.

For this series the following is noted: buffer; pH 7.4; 200.0 µM.
Molecule `CCN1C(=O)CC(NNC(=O)c2ccccc2)C1=O` (configuration not stated) gave a kinetic solubility above 39.2 µg/mL.
Next, `CC(=O)c1ccc(NC(=S)N2CCN(CCO)CC2)cc1`: above 46.1 µg/mL; `O=C(NCCO)C(=O)c1c(-c2ccccc2)cc2ccccn12`: 38.2 µg/mL (≈ 124 µM).
On to `CCCCC1CN2CCc3c([nH]c4ccccc34)C2(C)C1.Cl` (configuration not stated), for which the solubility (kinetic) turned out to be 27.7 µg/mL.
For `Cc1nn(CC(=O)NC(C)C)c(C)c1[N+](=O)[O-]` the value was above 36 µg/mL; for `COc1ccc(OC)c(NC2=NCCS2)c1`, above 35.7 µg/mL; for `S=C1NCN(Cc2cccnc2)CN1c1cccc(Cl)c1`, above 47.8 µg/mL.
For `CC(=O)Nc1ccc(SCc2csc(C)n2)cc1` the value was 35.4 µg/mL (≈ 127 µM).
Next, `CCCCN(C(=O)CN(C)CC(=O)Nc1cccc(OC)c1)c1c(N)n(CCCC)c(=O)[nH]c1=O`: above 73.3 µg/mL; `O=C(CCn1c(=O)sc2ccccc21)NC1CCCCC1`: 27.4 µg/mL (≈ 90 µM); `Cc1c(NC(=O)c2ccc(NS(=O)(=O)c3ccc(F)c(F)c3)cc2)c(=O)n(-c2ccccc2)n1C`: above 74.8 µg/mL.
Turning to `Cc1ccc(CN2C(=O)CSC2c2ccccc2F)cc1` (configuration not stated), the solubility (kinetic) is 14 µg/mL (≈ 46.5 µM).
For `CCCCOP(=O)(OCCCC)C(O)c1ccc(N(C)C)cc1` (configuration not stated) the value was above 51.5 µg/mL; for `Nc1ccnc(=O)[nH]1`, above 16.7 µg/mL.
Consider `O=C(CNC(=O)c1ccccc1F)Nc1ccc2c(c1)OCO2`, for which the kinetic solubility came out at 23.2 µg/mL (≈ 73.4 µM).
For `N#CCNC(=O)C1c2ccccc2Oc2ccccc21` the value was 4.1 µg/mL (≈ 15.5 µM); for `O=C(NC1(C(F)(F)F)NC(=O)N(C2CCCCC2)C1=O)C1CC1` (configuration not stated), above 50 µg/mL.
For `c1cnc(N2CCN(Cc3ccc4c(c3)OCO4)CC2)cn1` the value was 44.5 µg/mL (≈ 149 µM).
Next, `c1ccc(Cc2nc3ccccc3[nH]2)cc1`: above 31.2 µg/mL; `[Br-].c1ccc(C[n+]2ccc3ccccc3c2)cc1`: 43.9 µg/mL; `CCOc1cc(N2CCOCC2)c(OCC)cc1NC(=O)COC(=O)C1CCCN1S(=O)(=O)c1ccccc1F` (configuration not stated): 84.7 µg/mL (≈ 146 µM).
For the molecule `Cc1ccc(NC(=O)CCN2C(=O)c3ccccc3C2=O)cc1`, the kinetic solubility turned out to be 8.9 µg/mL (≈ 28.9 µM).
Next, `Cc1ccc(C)c(NC(=S)N2CCCCC2CO)c1` (configuration not stated): above 41.8 µg/mL; `Cc1cnc(C(=O)OCc2c(C)cc(C(C)(C)C)cc2C)cn1`: 9 µg/mL (≈ 28.8 µM).
Molecule `C=CCn1c(O)c(C(C)=Nc2cccc(C(=O)O)c2)c(=O)[nH]c1=O` gave a solubility (kinetic) above 49.4 µg/mL.
Next, `CC(C(=O)OCC(=O)NC1CCCCC1)N1C(=O)c2ccccc2C1=O` (configuration not stated): above 53.8 µg/mL; `O=C(/C=C/c1ccc2c(c1)OCO2)NCC1CCCO1` (configuration not stated): above 41.3 µg/mL.
Next, `O=C(Nc1ccc(Br)cc1Cl)c1ccc(OCC2CCCO2)cc1` (configuration not stated): 2.8 µg/mL (≈ 6.82 µM); `NC(=S)Cc1ccccc1Cl`: 25.2 µg/mL (≈ 136 µM).
Next, `N#CCSc1ccc(S(=O)(=O)N2CCOCC2)cn1`: above 44.9 µg/mL.
Regarding `Cc1cc(C)c2oc(C(=O)N3CCN(C)CC3)cc(=O)c2c1`, the kinetic solubility was 27.2 µg/mL (≈ 90.6 µM).
Take `COc1ccc(S(=O)(=O)N2CC(=O)Nc3ccccc32)cc1C`: the kinetic solubility is above 49.9 µg/mL.
For `CCOc1ccc(S(=O)(=O)NC2CC2)cc1` the value was above 36.2 µg/mL; for `COc1ccc(CSc2nc(C)cc(C)c2C#N)cc1`, 2.7 µg/mL (≈ 9.49 µM); for `CN(C)C(=S)Nc1cccc(C(F)(F)F)c1`, 29.7 µg/mL (≈ 120 µM).
For `COc1ccc(NC2CCCN(C(=O)c3cccnc3)C2)cc1` (configuration not stated) the value was above 46.7 µg/mL; for `O=C(C(=O)N1CCCC1)c1c(-c2ccccc2)[nH]c2ccccc12`, above 47.8 µg/mL; for `Fc1ccc(CNCCc2c[nH]c3ccccc23)cc1`, above 40.2 µg/mL.
Next, `COc1cccc(/C=C2\SC(N3CCC(C)CC3)=NC2=O)c1OC`: 21.5 µg/mL (≈ 62.1 µM); `O=c1[nH]c2ccc(NCc3ccc(F)cc3)cc2[nH]1`: 35.9 µg/mL (≈ 140 µM).
The molecule `CC(=NCCN(C)C)c1c(O)n(Cc2ccccc2)c(=O)[nH]c1=O` gave a solubility (kinetic) above 49.6 µg/mL.
Next, `O=C(O)CCCC(=O)Nc1cc([N+](=O)[O-])ccc1O`: 35.8 µg/mL (≈ 133 µM).
For `COc1ccccc1-n1cc(-c2ccc(C)cc2)[nH]c1=S` the value was 1 µg/mL (≈ 3.37 µM); for `O=[N+]([O-])c1ccc(S(=O)(=O)Nc2ccc3c(c2)OCCO3)cc1`, 45.2 µg/mL (≈ 134 µM).
Molecule `Nc1ccc(S(=O)(=O)NCc2ccccn2)cc1` showed a kinetic solubility above 39.5 µg/mL.
For `Cc1cc(C)n2nc(C(=O)OCC(=O)Nc3ccc(C)c(F)c3)nc2n1` the value was above 53.6 µg/mL; for `CCc1c(C)sc(NC(=O)c2ccco2)c1C#N`, 17 µg/mL (≈ 65.3 µM); for `CC(Nc1nc(=S)nc(Nc2ccc(F)cc2)[nH]1)c1ccccc1` (configuration not stated), 0.6 µg/mL (≈ 1.76 µM).
The molecule `O=C(COC(=O)c1cccnc1)NC1CCCc2ccccc21` (configuration not stated) registered a kinetic solubility of 39.3 µg/mL (≈ 127 µM).
Next, `COc1ccc(-c2csc(-c3[nH]cnc3N)n2)cc1`: 18.1 µg/mL (≈ 66.5 µM); `Cc1cccc(NC2SC(=O)NC2=O)c1` (configuration not stated): above 33.3 µg/mL; `CN(C(=O)COC(=O)c1ccc(C#N)cc1)c1ccccc1`: 19.4 µg/mL (≈ 65.9 µM).

(Values after PubChem BioAssay AID1996.)
